Measured values taken from the NIST ThermoML archive (doi:10.1016/j.fluid.2006.05.032).
± gives the expanded uncertainty stated by the source.

Test: xn = mol fraction of the nth substance listed
Settings: Liquid, Vibrating tube method

Cc1ccccc1 [toluene] + CCCO
mass density [kg/m3]
Settings | x2 = 0 | x2 = 0.125 | x2 = 0.25 | x2 = 0.375 | x2 = 0.5 | x2 = 0.625 | x2 = 0.75 | x2 = 0.875
343.15 K, 15000 kPa | – | – | – | – | 808.1 ± 1 | 801.3 ± 1 | 793.8 ± 1 | 785.1 ± 1
343.15 K, 20000 kPa | 838.1 ± 1 | 831.3 ± 1 | 824.9 ± 1 | 818.7 ± 1 | 812.4 ± 1 | 805.7 ± 1 | 798.1 ± 1 | 789.5 ± 1
343.15 K, 25000 kPa | 842.3 ± 1 | 835.5 ± 1 | 829.1 ± 1 | 822.9 ± 1 | 816.6 ± 1 | 809.8 ± 1 | 802.2 ± 1 | 793.5 ± 1
343.15 K, 30000 kPa | 846.2 ± 1 | 839.5 ± 1 | 833.1 ± 1 | 827 ± 1 | 820.7 ± 1 | 813.9 ± 1 | 806.2 ± 1.1 | 797.4 ± 1.1
343.15 K, 35000 kPa | 850.1 ± 1 | 843.2 ± 1 | 837 ± 1 | 830.7 ± 1.1 | 824.5 ± 1.1 | 817.6 ± 1.1 | 809.9 ± 1.1 | 801.1 ± 1.1
343.15 K, 40000 kPa | 853.7 ± 1 | 847 ± 1.1 | 840.6 ± 1.1 | 834.4 ± 1.1 | 828.2 ± 1.1 | 821.4 ± 1.1 | 813.5 ± 1.1 | 804.6 ± 1.1
343.15 K, 45000 kPa | 857.4 ± 1.1 | 850.4 ± 1.1 | 844.3 ± 1.1 | 838 ± 1.1 | 831.8 ± 1.1 | 824.9 ± 1.1 | 817.2 ± 1.1 | 808.2 ± 1.1
343.15 K, 50000 kPa | 860.8 ± 1.1 | 853.9 ± 1.1 | 847.7 ± 1.1 | 841.4 ± 1.1 | 835.2 ± 1.1 | 828.2 ± 1.1 | 820.5 ± 1.1 | 811.4 ± 1.1
343.15 K, 55000 kPa | 864.2 ± 1.1 | 857.1 ± 1.1 | 851 ± 1.1 | 844.8 ± 1.1 | 838.5 ± 1.1 | 831.5 ± 1.1 | 823.7 ± 1.1 | 814.7 ± 1.1
343.15 K, 60000 kPa | 867.4 ± 1.1 | 860.5 ± 1.1 | 854.3 ± 1.1 | 848 ± 1.1 | 841.8 ± 1.1 | 834.8 ± 1.1 | 826.9 ± 1.1 | 817.7 ± 1.1
343.15 K, 65000 kPa | 870.3 ± 1.1 | 863.6 ± 1.1 | 857.4 ± 1.1 | 851.1 ± 1.1 | 844.9 ± 1.1 | 837.8 ± 1.1 | 829.9 ± 1.1 | 820.7 ± 1.1
353.15 K, 100 kPa | 809.7 ± 1 | 802.7 ± 1 | 795.9 ± 1 | 789.9 ± 1 | 783.8 ± 1 | 777 ± 1 | 769 ± 1 | 760.6 ± 1
353.15 K, 5000 kPa | 815.1 ± 1 | 808 ± 1 | 801.4 ± 1 | 795.3 ± 1 | 789.2 ± 1 | 782.3 ± 1 | 774.4 ± 1 | 766.1 ± 1
353.15 K, 10000 kPa | 820.3 ± 1 | 813.3 ± 1 | 806.7 ± 1 | 800.6 ± 1 | 794.6 ± 1 | 787.7 ± 1 | 779.6 ± 1 | 771.2 ± 1
353.15 K, 15000 kPa | 825.3 ± 1 | 818.2 ± 1 | 811.6 ± 1 | 805.5 ± 1 | 799.5 ± 1 | 792.6 ± 1 | 784.6 ± 1 | 776.2 ± 1
353.15 K, 20000 kPa | 829.9 ± 1 | 822.9 ± 1 | 816.3 ± 1 | 810.2 ± 1 | 804.2 ± 1 | 797.3 ± 1 | 789.1 ± 1 | 780.7 ± 1
353.15 K, 25000 kPa | 834 ± 1 | 827.3 ± 1 | 820.8 ± 1 | 814.7 ± 1 | 808.7 ± 1 | 801.7 ± 1 | 793.5 ± 1 | 784.9 ± 1.1
353.15 K, 30000 kPa | 838.2 ± 1 | 831.6 ± 1 | 825 ± 1 | 818.9 ± 1 | 813 ± 1.1 | 805.9 ± 1.1 | 797.6 ± 1.1 | 789 ± 1.1
353.15 K, 35000 kPa | 842.2 ± 1 | 835.6 ± 1 | 829.1 ± 1.1 | 822.9 ± 1.1 | 817 ± 1.1 | 809.9 ± 1.1 | 801.6 ± 1.1 | 792.9 ± 1.1
353.15 K, 40000 kPa | 846.1 ± 1.1 | 839.4 ± 1.1 | 833 ± 1.1 | 826.8 ± 1.1 | 820.8 ± 1.1 | 813.7 ± 1.1 | 805.4 ± 1.1 | 796.6 ± 1.1
353.15 K, 45000 kPa | 849.8 ± 1.1 | 843.2 ± 1.1 | 836.7 ± 1.1 | 830.6 ± 1.1 | 824.6 ± 1.1 | 817.4 ± 1.1 | 809.1 ± 1.1 | 800.3 ± 1.1
353.15 K, 50000 kPa | 853.3 ± 1.1 | 846.8 ± 1.1 | 840.3 ± 1.1 | 834.2 ± 1.1 | 828.1 ± 1.1 | 820.9 ± 1.1 | 812.5 ± 1.1 | 803.7 ± 1.1
353.15 K, 55000 kPa | 856.7 ± 1.1 | 850.2 ± 1.1 | 843.8 ± 1.1 | 837.6 ± 1.1 | 831.6 ± 1.1 | 824.4 ± 1.1 | 815.8 ± 1.1 | 807 ± 1.1
353.15 K, 60000 kPa | 860.1 ± 1.1 | 853.6 ± 1.1 | 847.2 ± 1.1 | 840.9 ± 1.1 | 835 ± 1.1 | 827.7 ± 1.1 | 818.9 ± 1.1 | 810.3 ± 1.1
353.15 K, 65000 kPa | 863.5 ± 1.1 | 856.8 ± 1.1 | 850.4 ± 1.1 | 844.2 ± 1.1 | 838.3 ± 1.1 | 830.9 ± 1.1 | 822.5 ± 1.1 | 813.6 ± 1.1
